Measurements: article PMC7309601 (Frontiers in Neuroscience, 2020)

Key:
[1] = tested on: scopolamine-treated mice injected with sh-GFP, sh-Cx30 or sh-Cx43; assay: Novel object location (NOL) task in lentiviral vector-injected, scopolamine-treated mice; format: in vivo
[2] = tested on: ACh outflow in the hippocampus; assay: Hippocampal microdialysis and quantification of ACh; format: in vivo, mice
Experimental: Mice were anesthetized with isoflurane, placed in a stereotaxic frame and bilaterally implanted with probes in both left and right hippocampi.
Concentrations of ACh in the microdialysis samples were analyzed by the Pronexus Analytical AB company (Stockholm, Sweden) using UHPLC tandem mass spectrometry (MS/MS). Briefly, the UHPLC-MS/MS system included a PAL autosampler (CTC Analytics, Zwingen, Switzerland), an Advance UHPLC pump, and an EVOQ Elite triple quadrupole mass spectrometer (Bruker Daltonics, Fremont, CA, United States) equipped with electrospray ionization source operating in a positive mode at +4,500 V. The source parameters were as follows: probe gas flow: 50, nebulizer gas flow: 60, probe temperature: +300°C, cone gas flow: 30, cone temperature: +200°C, CID gas: Ar 1.5 mTorr. A Titan PFP column (100 × 2.1 mm, 1.9 μm, 120 Å pore size) purchased from Sigma-Aldrich (Sweden) was used for UHPLC. Deuterated ACh (acetylcholine-1,1,2,2-d4 bromide; ACh-d4), used as internal standard, was purchased from C/D/N Isotopes (QMX Laboratories, Dunmow CM6 2PY, United Kingdom). Typically, 10 μL of aCSF or hippocampal microdialysate was mixed with 20 μL of ACh-d4 internal standard (50 nM, in aCSF), and 5 μL of the mixture was injected into the column. The mobile phase A was 0.1% (vol/vol) formic acid in water; the mobile phase B was acetonitrile with 0.1% formic acid. The linear elution gradient was as follows: 0–0.5 min: 5% B; 3.5 min: 55% B; 3.6 to 4.0 min: 70% B; 4.1 min, 5% B. The flow rate was 400 μL/min, and the total run-to-run time was 4.8 min. The calibration curve was linear in the range of 0.1 to 409.6 nM ACh (R^2 = 0.999); the estimated limit of detection was 0.05 nM, and the lower limit of quantification was 0.15 nM.
. 1 mg/kg, i.p.), or vehicle (NaCl 0.9%). Values are expressed as means ± SEM, n = 4–7 per group. Two-way ANOVA followed by Fisher least significant difference: *P < 0.05, **P < 0.01 vs Vehicle; […]. Acetylcholinesterase activity is expressed as percent of that determined in the absence of drugs. […]

astrocyte Cx expression = tested on: astrocyte Cx expression; set-up: method as in Biswas et al., 2018; conditions: ref Biswas et al., 2018; cited from earlier work
[3] = tested on: Aβ25–35 peptide-injected mice; assay: Morris water maze in Aβ25–35-injected mice
From the text: Control groups received the vehicles only under the very same conditions (volume, time, route of administration) as tested drugs.
Both peptides Aβ25–35 and Sc.Aβ (scramble Aβ25–35) were purchased from PolyPeptides (Strasbourg, France).
Mice were placed in a circular pool with external cues in the room. […] Training consisted of three swims with 20-min intertrial time each day for 5 days, performed between days 11 and 15 after Aβ25–35 peptide or Sc.Aβ peptide i.c.v. injection. Random starting positions were selected each day, and each animal was allowed a 90-s swim to find the platform. Probe test was performed 24 h after the last swim (day 16 after peptide injection). The platform was removed, and each animal was allowed a free 60-s swim. The time spent in each quadrant was determined. Swimming was recorded using EthoVision software (Noldus).

scopolamine-treated mice [4] = assay: Y-maze spontaneous alternation task after scopolamine challenge; conditions: scopolamine 0.5 mg/kg s.c.
Experimental: Mefloquine (Sigma-Aldrich, L’Isle d’Abeau Chesnes, France) and DPZ (Sigma-Aldrich) were dissolved in 2% dimethyl sulfoxide (DMSO) and administered acutely either intraperitoneally (i.p.) (5 mL/kg) or by oral gavage (p.o.) (10 mL/kg). Scopolamine (Sigma-Aldrich) was administered subcutaneously (s.c.) (5 mL/kg) in saline solution (0.9% NaCl).
Mice were placed at the end of one arm of a Y-maze and allowed to move freely through the maze during an 8-min session. Spontaneous alternation was defined as entries into all three arms on consecutive occasions. […] The number of total arm entries during the 8-min session was used to quantify locomotor activity.

scopolamine-treated mice [5] = assay: Novel object recognition (NOR) task after scopolamine challenge; format: in vivo; conditions: scopolamine 0.5 mg/kg s.c.
Experimental: Both novel object recognition (NOR) and novel object location (NOL) tests were carried out in an open-field arena during three phases ([Leger et al., 2013]; [Vogel-Ciernia and Wood, 2014]; [Lueptow, 2017]). (i) For the habituation phase on the first day, mice were allowed to freely explore the empty apparatus. (ii) On the second day, two identical objects were placed at two opposite edges of the arena. Time spent by the mouse exploring the two objects was recorded. (iii) Twenty-four hours later, one of the two familiar objects was replaced by a novel one (NOR) or displaced (NOL). Mice were allowed to explore the whole arena during 10 min for each of the three phases. The preference index was calculated as the ratio of the duration of contacts with the novel/displaced object over the total duration of contacts with the two objects. Locomotion was recorded using EthoVision software (Noldus, Paris, France).

Question: What does the source list for `COc1cc2c(cc1OC)C(=O)C(CC1CCN(Cc3ccccc3)CC1)C2` (stereo not drawn) [DPZ, Donepezil]?
Answer: NOL task: effect on scopolamine-induced memory deficit ([1]; DPZ 0.25 mg/kg i.p., sh-Cx30 group): significantly reduced the scopolamine effect; NOL task: effect on scopolamine-induced memory deficit ([1]; DPZ 0.25 mg/kg i.p., sh-Cx43 group): significantly reduced the scopolamine effect; NOL task: effect on scopolamine-induced memory deficit ([1]; DPZ 0.25 mg/kg i.p., sh-GFP injected mice): unable to prevent the memory deficit caused by scopolamine; NOL task: effect on scopolamine-induced memory deficit ([1]; DPZ 1 mg/kg i.p., all groups (sh-GFP, sh-Cx30, sh-Cx43)): able to prevent NOL memory deficits induced by scopolamine; Hippocampal ACh outflow ([2]; DPZ 0.25 mg/kg i.p. alone): did not significantly modify ACh outflow; Increase of hippocampal ACh levels ([2]; DPZ 1 mg/kg i.p., 20 min after injection): up to 2.5 fold; Astrocyte Cx expression levels (astrocyte Cx expression): not to significantly alter astrocyte Cx expression levels; Morris water maze learning (swim latency): effect on Aβ-induced memory deficit ([3]; DPZ 0.25 mg/kg p.o. daily): showed no effect; Morris water maze probe test: time spent in target quadrant ([3]; DPZ 1 mg/kg p.o. daily, day 16): restored performance up to the level noted in Sc.Aβ-injected control mice; Morris water maze learning (swim latency): effect on Aβ-induced memory deficit ([3]; DPZ 1 mg/kg p.o. daily, learning days 2 to 5): significantly reversed the Aβ-induced memory deficits; Spontaneous alternation (Y-maze): effect on scopolamine-induced deficit (scopolamine-treated mice [4]; DPZ 0.1 mg/kg i.p. 40 min before task): exerted no effect; Spontaneous alternation (Y-maze): effect on scopolamine-induced deficit (scopolamine-treated mice [4]; DPZ 0.25 mg/kg p.o. 40 min before task): did not reverse scopolamine-induced deficit; Spontaneous alternation (Y-maze): effect on scopolamine-induced deficit (scopolamine-treated mice [4]; DPZ 0.5 mg/kg i.p. 40 min before task): significantly reversed the scopolamine-induced deficit; NOR test session: effect on scopolamine-induced loss of novel object preference (scopolamine-treated mice [5]; DPZ 0.25 mg/kg i.p.): Neither MEF1 i.p., nor DPZ0.25 i.p., prevented the scopolamine effect; NOR test session: effect on scopolamine-induced loss of novel object preference (scopolamine-treated mice [5]; DPZ 1 mg/kg i.p.): restore exploration preference of the novel object
